Molecules are shown by their SMILES.

Assay type in all cases: cell-based
One assay concerns HepG2. Nature of the assay: MTT cytotoxicity assay, HepG2 (liver cancer). To be noted: Homo sapiens. As to the method: (§1) Cell survival after exposure to the sphingolipid metabolite mimetics was examined by MTT cytotoxicity assay. HepG2, A431, HeLa, MCF-7 and SA cells (7000 cells/well) were seeded in each well of a 96-well plate for 24 h. New medium was added to give final concentrations of 0 to 200 μM of the sphingolipid metabolite mimetics. Then, 50 μl of 1 mg/ml 3-(4,5-dimethylthiazol-2-yl)-2,5-diphenyltetrazolium bromide (MTT, Sigma-Aldrich Chemical) was added to each well for 4 h incubation at 37° C. The purple formazan formed was then solubilized by DMSO and absorbance at 570 nm was read by a microplate reader (Molecular Devices, Sunnyvale, Calif.).

Another assay deals with SW480. Nature of the assay: MTT cytotoxicity assay, SW480 (colon cancer). To be noted: Homo sapiens. (In general: Tetrazolium assays rely on reduction of a dye to a coloured formazan, in cell work by metabolically active cells.)
In the next assay the test system is SW620. Description: MTT cytotoxicity assay, SW620 (colon cancer). Conditions: Homo sapiens, SW-620.
The next assay concerns A431. Nature of the assay: MTT cytotoxicity assay, A431 (squamous carcinoma). Conditions: Homo sapiens, A-431. As to the method: as §1
In a further assay the test system is MCF-7. Description: MTT cytotoxicity assay, MCF-7 (breast cancer). Conditions: Homo sapiens, MCF7; Breast Cancer MCF-7, MTT. As to the method: as §1
Another assay relates to SiHa. Nature of the assay: MTT cytotoxicity assay, SiHa (ovarian cancer as headed). Conditions: Homo sapiens, Cervical Cancer SiHa.
A further assay concerns SA. Nature of the assay: MTT cytotoxicity assay, SA (pancreatic cancer as headed). As to the method:
as §1

`CCCCCCCCCCCCCC(=O)N[C@H](C(=O)Nc1ccccc1)[C@@H](C)O` [NZJU19, N-((2S,3R)-3-Hydroxy-1-oxo-1-(benzamino)butan-2-yl)-tetradecyl acid amide]: the IC50 – broadly, the concentration that inhibits the measured activity by half – in the assay on HepG2 was > 400 µM; in the assay with SW480, > 200 µM; in the assay on SW620 it was ≥ 200 µM; in the assay on A431 it was > 200 µM; in the assay on MCF-7, > 400 µM; in the assay on SiHa it was > 200 µM. In addition, in the assay on SA, the IC50 is > 200 µM.
In the case of `CCCCCCCCCCCCNC(=O)[C@@H](NS(=O)(=O)c1cccs1)[C@@H](C)O` [NZJU59, N-((2S,3R)-3-hydroxy-1-oxo-1-(dodecylamino)butan-2-yl)-2-thiophene sulfonamide], the IC50 in the assay with HepG2 came out at 25.9 ± 1.21 µM; in the assay on SW480, 41 ± 2.25 µM; in the assay on A431, 22 ± 0.86 µM; in the assay on SiHa it was 30.9 ± 1.28 µM; with SA it was 20.1 ± 1.65 µM.
For `CCCCCCCCCCCCCCCCCCNC(=O)[C@@H](NC(=O)c1cccs1)[C@@H](C)O` [NZJU35, N-((2S,3R)-3-hydroxy-1-oxo-1-(octadecylamino)butan-2-yl)-2-thiophene carboxamide], the IC50 in the assay on HepG2 was 92 ± 7.76 µM; in the assay with SW480 it was 89 µM; with SW620 it was ≥ 200 µM; with A431 it was 33.3 ± 3.32 µM; in the assay with MCF-7 it was 25.7 ± 0.47 µM; in the assay with SiHa it was 117 ± 3.9 µM. This compound showed an IC50 in the assay with SA of 53.5 ± 5.32 µM.
For `C/C=C/C=C/C(=O)N[C@H](C(=O)NCCCCCCCCCCCCCCCCCC)C(C)O` (stereo in doubt) [NZJU12, (2E,4E)-N-((2S,3R)-3-hydroxy-1-oxo-1-(octadecylamino)butan-2-yl)-2,4-hexadienoic acid amide], the IC50 is 284 ± 8.3 µM in the assay with HepG2; 196 µM in the assay on SW480; ≥ 200 µM with SW620; 187 ± 2.41 µM in the assay on A431; 79.6 ± 2.34 µM in the assay with MCF-7; > 200 µM in the assay on SiHa. Further, in the assay on SA, the IC50 was > 200 µM.
Take `CCCCCCCCCCCCCCNC(=O)[C@@H](NC(=O)c1ccco1)[C@@H](C)O` [NZJU14, N-((2S,3R)-3-hydroxy-1-oxo-1-(tetradecylamino)butan-2-yl)-Furan-2-carboxamide]: the IC50 was > 400 µM in the assay on HepG2; 110 ± 5.03 µM in the assay on SW480; ≥ 200 µM with SW620; 190 ± 6.86 µM with A431; 105 ± 5.03 µM in the assay with MCF-7; 127 ± 7.41 µM with SiHa. Also, the IC50 with SA was 148 ± 11.6 µM.
As for `CCCCCCCCCCCCCCNC(=O)[C@@H](NC(=O)C1=C[C@H](O)[C@H](O)[C@@H](O)C1)[C@@H](C)O` [NZJU64, (3S,4R,5S)-3,4,5-trihydroxy-N-((2S,3R)-3-hydroxy-1-oxo-1-(tetradecylamino)butan-2-yl)cyclohex-1-enecarboxamide], the IC50 with HepG2 was determined as 29.9 ± 2.81 µM; with SW480, 47.8 ± 3.43 µM; in the assay on A431, 23.1 ± 2.97 µM; with SiHa, 24.6 ± 2.04 µM; with SA, 33.7 ± 1.28 µM.
As for `CCCCCCCCNC(=O)[C@@H](NC(=O)c1nccc2ccccc12)[C@@H](C)O` [NZJU43, N-((2S,3R)-3-hydroxy-1-oxo-1-(octylamino)butan-2-yl)-isoquinoline-1-carboxamide], the IC50 in the assay on HepG2 stood at 88.2 ± 1.92 µM; with SW620, 67.75 ± 0.099 µM; in the assay on A431, 26.9 ± 2.81 µM; in the assay on MCF-7, 63.2 ± 4.73 µM; with SiHa, 66 ± 5.48 µM; in the assay with SA, 22.9 ± 2.59 µM.
With `CCCCCCCCCCCCCCCCCCNC(=O)[C@@H](NC(=O)c1nccc2ccccc12)[C@@H](C)O` [NZJU32, N-((2S,3R)-3-hydroxy-1-oxo-1-(octadecylamino)butan-2-yl)-isoquinoline-1-carboxamide], the IC50 stood at 96.9 ± 6.77 µM in the assay on HepG2; 30.7 µM with SW480; 136 ± 13.3 µM with SW620; 44.1 ± 2.02 µM with A431; 30.8 ± 0.67 µM in the assay on MCF-7; 51.2 ± 3.46 µM in the assay on SiHa. In the assay with SA, this compound came in with an IC50 of 49.1 ± 4.72 µM.
With `C/C=C/C=C/C(=O)N[C@H](C(=O)NCCCCCCCCCCCC)[C@@H](C)O` [NZJU10, (2E,4E)-N-((2S,3R)-3-hydroxy-1-oxo-1-(dodecylamino)butan-2-yl)-2,4-hexadienoic acid amide], the IC50 in the assay on HepG2 is > 400 µM; in the assay on SW480, > 200 µM; in the assay on SW620, ≥ 200 µM; in the assay on A431 it was 171 ± 12.1 µM; in the assay on MCF-7, 37.1 ± 4.11 µM; in the assay on SiHa, > 200 µM. The compound further came in with an IC50 with SA of 189 ± 12.2 µM.
Consider `CCCCCCCCCCCCCCCCCCNC(=O)[C@@H](NS(=O)(=O)c1cccs1)[C@@H](C)O` [NZJU61, N-((2S,3R)-3-hydroxy-1-oxo-1-(octadecylamino)butan-2-yl)-2-thiophene sulfonamide], for which the IC50 with HepG2, with SW480, in the assay with A431, in the assay on SiHa and in the assay on SA was > 200 µM each time.
For the compound `CCCCCCCCCCCCCCCCCCNC(=O)[C@@H](NC(=O)c1cc2ccccc2n1C)[C@@H](C)O` [NZJU52, N-((2S,3R)-3-hydroxy-1-oxo-1-(octadecylamino)butan-2-yl)-(N-methyl)indole-2-carboxamide], the IC50 is > 200 µM in the assay on HepG2; 36 ± 3.23 µM in the assay with SW480; 61 ± 1.82 µM in the assay on A431; 113 ± 12 µM in the assay with SiHa; 36.37 ± 0.19 µM in the assay with SA.
Consider `CCCCCCCCCCCCNC(=O)[C@@H](NC(=O)c1ccc2cc(O)ccc2c1)[C@@H](C)O` [NZJU53, N-((2S,3R)-3-hydroxy-1-oxo-1-(dodecylamino)butan-2-yl)-6-hydroxylnaphthoic-2-carboxamide], for which the IC50 in the assay on HepG2 came out at 43 ± 4.04 µM; in the assay with SW480, 58.1 ± 4.37 µM; in the assay with A431, 33 ± 3.55 µM; with SiHa, 27.4 ± 2.07 µM; in the assay on SA it was 37.1 ± 1.17 µM.
Take `CCCCCCCCCCCCCCCCCCNC(=O)[C@@H](NC(=O)c1ccco1)[C@@H](C)O` [NZJU15, N-((2S,3R)-3-hydroxy-1-oxo-1-(octadecylamino)butan-2-yl)-Furan-2-carboxamide]: the IC50 worked out at 42.3 ± 3.73 µM with HepG2; 24.4 ± 0.7 µM in the assay with SW480; 19.9 ± 0.45 µM with A431; 21.4 ± 2.4 µM in the assay on MCF-7; 13.3 ± 1.05 µM in the assay with SiHa; 52.6 ± 6.02 µM in the assay with SA.
Take `CCCCCCCCCCCCCCNC(=O)[C@@H](NC(=O)c1ccc2cc(O)ccc2c1)[C@@H](C)O` [NZJU54, N-((2S,3R)-3-hydroxy-1-oxo-1-(tetradecylamino)butan-2-yl)-6-hydroxylnaphthoic-2-carboxamide]: the IC50 with HepG2 was found to be 23.6 ± 1.16 µM; with SW480 it was 33.2 ± 1.08 µM; in the assay on A431, 24.4 ± 1.27 µM; with SiHa, 30.1 ± 3.01 µM; with SA, 24.2 ± 0.83 µM.
With `CCCCCCCCCCCCCCCCCCNC(=O)[C@@H](NS(=O)(=O)c1ccc2ccccc2c1)[C@@H](C)O` [NZJU63, N-((2S,3R)-3-hydroxy-1-oxo-1-(octadecylamino)butan-2-yl)-2-naphthylsulfonamide], the IC50 came to 19.8 ± 3.12 µM in the assay on HepG2; 69.1 ± 9.67 µM in the assay on SW480; 23.7 ± 1.46 µM in the assay on A431; 19.9 ± 3.31 µM in the assay with SiHa; 21.2 ± 0.81 µM in the assay on SA.
For the compound `CCCCCCCCCCCCCCCCCCNC(=O)[C@@H](NC(=O)c1cc2ccccc2o1)[C@@H](C)O` [NZJU38, N-((2S,3R)-3-hydroxy-1-oxo-1-(octadecylamino)butan-2-yl)-benzofuran-2-carboxamide], the IC50 in the assay on HepG2 was > 200 µM; with SW480 it was > 200 µM; with A431 it was 78.8 ± 6.99 µM; in the assay with MCF-7, 126 ± 7.19 µM; with SiHa it was > 200 µM; in the assay on SA, 162 ± 4.55 µM.
As to `CCCCCCCCCCCCNC(=O)[C@@H](NS(=O)(=O)c1ccc(C)cc1)[C@@H](C)O` [NZJU56, N-((2S,3R)-3-hydroxy-1-oxo-1-(dodecylamino)butan-2-yl)-4-methylbenzsulfonamide], the IC50 in the assay on HepG2 came out at 25.8 ± 0.52 µM; with SW480, 39.9 ± 2.54 µM; in the assay with A431, 25.2 ± 0.99 µM; in the assay on SiHa, 31.6 ± 4.56 µM; in the assay with SA, 27.2 ± 0.99 µM.
The like results for `CCCCCCCCCCCCCCCCCCNC(=O)[C@@H](NS(=O)(=O)c1ccc(C)cc1)[C@@H](C)O` [NZJU58, N-((2S,3R)-3-hydroxy-1-oxo-1-(octadecylamino)butan-2-yl)-4-methylbenzsulfonamide] were, in that order, 75.8 ± 9.46 µM, > 200 µM, 34 ± 1.03 µM, 29.8 ± 2.23 µM and 47.9 ± 5.2 µM.
Consider `CCCCCCCCCCCCNC(=O)[C@@H](NC(=O)c1cc2ccccc2n1C)[C@@H](C)O` [NZJU50, N-((2S,3R)-3-hydroxy-1-oxo-1-(dodecylamino)butan-2-yl)-(N-methyl)indole-2-carboxamide], for which the IC50 with HepG2 is > 200 µM; with SW480, 36 ± 2.87 µM; in the assay on A431 it was 169 ± 14.7 µM; in the assay with SiHa, > 200 µM; in the assay with SA, 31.3 ± 1.14 µM.
Turning to `CCCCCCCCCCCCCCCCCCNC(=O)[C@@H](NC(=O)c1ccc2cc(O)ccc2c1)[C@@H](C)O` [NZJU55, N-((2S,3R)-3-hydroxy-1-oxo-1-(octadecylamino)butan-2-yl)-6-hydroxylnaphthoic-2-carboxamide], the IC50 is 73.7 ± 5.21 µM in the assay on HepG2; 160 ± 5.86 µM in the assay on SW480; 85.8 ± 1.73 µM in the assay on A431; 48.1 ± 4.67 µM with SiHa; 84.8 ± 4.34 µM in the assay with SA.
Regarding `CCCCCCCCCCCCCCCCCCNC(=O)[C@@H](N)[C@@H](C)O` [NZJU4, (2S,3R)-2-Amino-3-hydroxy-N-octadecylbutanamide], the IC50 stood at 44.5 ± 3.49 µM in the assay on HepG2; 27.5 ± 3.03 µM with SW480; 21.4 ± 1.24 µM in the assay with SW620; 21.3 ± 1.72 µM with A431; 27.4 ± 1.8 µM in the assay on MCF-7; 39.5 ± 0.88 µM with SiHa.

The record behind these values is patent publication US20150031892A1, “SPHINGOLIPID METABOLITE MIMETICS” (Zhejiang University, priority 2012, published 2015).
